Laboratory results taken from PubChem BioAssay (NCI).
“And” between values parts separate entries of the source, which are not always exact repeats. Equal entries are not always repeated.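 Compound exposure: 48 hours, 5 concentrations, 96-well plates. GI50 = concentration required for 50% inhibition of growth. TGI: concentration producing complete growth inhibition.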

Legend:
Experiment in all cases: inhibition of tumour cell growth, NCI panel, 48 h
SF-268 CNS = tested on: SF-268 CNS
DLD-1 colon = tested on: DLD-1 colon
M14 melanoma = tested on: M14 melanoma
K-562 leukemia = tested on: K-562 leukemia
TK-10 renal = tested on: TK-10 renal
RXF 393 renal = tested on: RXF 393 renal
SNB-75 CNS = tested on: SNB-75 CNS
UO-31 renal = tested on: UO-31 renal
IGROV1 ovarian = tested on: IGROV1 ovarian
A498 renal = tested on: A498 renal

Row | SMILES | TGI (SF-268 CNS) | TGI (DLD-1 colon) [µM] | TGI (M14 melanoma) | TGI (K-562 leukemia) [µM] | TGI (TK-10 renal) | TGI (RXF 393 renal) | TGI (SNB-75 CNS) | TGI (UO-31 renal) | TGI (IGROV1 ovarian) | GI50 (SF-268 CNS) | GI50 (A498 renal) | TGI (A498 renal) | GI50 (M14 melanoma) | GI50 (K-562 leukemia) | GI50 (TK-10 renal) | GI50 (RXF 393 renal) | GI50 (SNB-75 CNS) | GI50 (UO-31 renal) | GI50 (IGROV1 ovarian) | GI50 (DLD-1 colon) [µM]
1 | C=C1C2Oc3ccccc3C1N(c1ccccc1)O2 (stereo unspecified) | > 100 µM | > 100 | 67.1 µM | > 100 | > 100 µM | > 100 µM | > 100 µM | > 100 µM | > 100 µM |  |  |  |  |  |  |  |  |  |  | 
2 | O=c1[nH]c2cc([N+](=O)[O-])ccc2nc1/C(=N\Nc1ccccc1)C(O)c1ccc2c(c1)OCO2 (stereo unspecified) | > 100 µM | > 100 | > 100 µM | > 100 | > 100 µM | > 100 µM | > 100 µM | > 100 µM | > 100 µM |  |  |  |  |  |  |  |  |  |  | 
3 | COc1ccccc1NC(=O)/C(=C/c1ccccc1)C(C)=O | > 100 µM | > 100 | 67.6 µM | > 100 | > 100 µM | 53.8 µM |  | > 100 µM | > 100 µM |  |  |  |  |  |  |  |  |  |  | 
4 | O=C(NCCN1CCNCC1)c1ccc(Nc2nc3ccccc3c3occc23)cc1 | > 100 µM |  | 3.98 µM | 40.1 | 35.2 µM | 26.4 µM | 25.9 µM | 27.9 µM | 15.1 µM | 21.3 µM | 16.2 µM | 36.3 µM | 1.94 µM | 14.4 µM | 18.3 µM | 6.92 µM | 7.06 µM | 11.1 µM | 1.97 µM | 
5 | C[C@]12C/C(=C/O)C(=O)C(O)=C1CC[C@@H]1C2CC[C@@]2(C)C1CC[C@@H]2O (stereo partly specified) | 54.1 µM |  | 38.1 µM | 82.2 | > 100 µM | 36.3 µM | 34.9 µM | 31.3 µM | 46 µM |  |  | 65.1 µM |  |  |  |  |  |  |  | 
6 | Cc1ccc2oc(=O)c(-c3ccccc3)nc2c1 | > 100 µM | > 100 | > 100 µM | > 100 | > 100 µM |  | > 100 µM | 95.1 µM |  |  |  |  |  |  |  |  |  |  |  | 
7 | COc1ccc(F)c(F)c1C(=O)c1cnc(NC2CCN(S(C)(=O)=O)CC2)nc1N | 7.16 µM and > 7.59 µM |  | 9.66 µM and > 10 µM | > 100 | > 20.3 µM | 1.48 µM and 0.423 µM | 3.62 µM and 2.73 µM | 6.96 µM and > 9.24 µM | > 100 µM | 1.14 µM and 0.527 µM | 0.445 µM | 2.08 µM | 1.48 µM and 0.917 µM | 2.05 µM and 1.95 µM | 0.493 µM and 0.333 µM | 0.286 µM and 0.149 µM | 1.26 µM and 1.09 µM | 0.779 µM and 0.36 µM | 1.06 µM and 0.387 µM | 
8 | CN1c2ccccc2SC2C(c3ccccc3)=NOC21 (stereo unspecified) | > 100 µM |  | > 100 µM | > 100 | 80 µM | > 100 µM | 56.6 µM | > 100 µM | > 100 µM |  |  | > 100 µM |  |  |  |  |  |  |  | 
9 | CCN(CC)c1ccc(/C=C/C2=[N+](C)c3ccccc3C2(C)C)c(C)c1 | 2.11 µM |  | 1.64 µM | 12.2 | 5.3 µM | 2.85 µM | 0.876 µM | 2.53 µM | 11.4 µM | 0.1 µM | 0.11 µM | 4.02 µM | 0.0853 µM | 0.0377 µM | 0.0779 µM | 0.0837 µM | 0.0736 µM | 0.088 µM | 0.117 µM | 
10 | CC(C)[O-].CC(C)[O-].O=c1cccccc1[O-].O=c1cccccc1[O-].[Ti+4] | > 100 µM | > 100 | > 100 µM | > 100 | > 100 µM |  | > 100 µM | > 100 µM | > 100 µM |  |  |  |  |  |  |  |  |  |  | 42
11 | [2H]c1nc(=Nc2cc(NC(=O)C=C)c(N(C)CCN(C)C)cc2OC)[nH]c(-c2cn(C([2H])([2H])[2H])c3ccccc23)c1[2H] | 13 µM |  | 3.23 µM | 3.78 | 3.8 µM | 3.2 µM | 24.8 µM | 2.25 µM | 2.04 µM | 1.98 µM | 1.21 µM | 4.56 µM | 1.67 µM | 1.29 µM | 0.0802 µM | 1.4 µM | 10.8 µM | 0.943 µM | 0.122 µM | 
12 | C=CCNC(=O)N(CCC)CCCC(NC(C)=O)C(=O)NCc1ccccc1 (stereo unspecified) | > 100 µM |  | > 100 µM | > 100 | > 100 µM | > 100 µM | > 100 µM | > 100 µM | > 100 µM |  |  | > 100 µM |  |  |  |  |  |  |  | 
13 | CCn1c(-c2nonc2N)nc2ccncc21 | > 25 µM |  | > 25 µM | > 25 | > 25 µM | > 25 µM | > 25 µM | > 25 µM | > 25 µM | > 25 µM | > 25 µM | > 25 µM | > 25 µM | > 25 µM | > 25 µM | > 25 µM | > 25 µM | > 25 µM | > 25 µM | 
14 | COc1ccc2c(NCCCCCCNc3c4ccccc4nc4cc(OC)ccc34)c3ccccc3nc2c1 | 12.5 µM | 2.62 | 1.23 µM | 0.304 | 4.56 µM | 0.483 µM | 1.74 µM | 37.5 µM | 0.339 µM |  |  |  |  |  |  |  |  |  |  | 
15 | CC1(O)CCn2c(=O)c3cc4ccccc4cc3c(=O)n2C1O (stereo unspecified) | > 100 µM | > 100 |  | > 100 | > 100 µM | > 100 µM |  |  | > 100 µM |  |  |  |  |  |  |  |  |  |  | 
16 | Cc1c(C(=O)/C=C/c2ccccc2[N+](=O)[O-])[n+](=O)c2ccccc2n1[O-] |  | 17.9 | 23.1 µM | 30.6 |  |  | 30.3 µM | 33 µM | 29.9 µM |  |  | 26 µM |  |  |  |  |  |  |  | 
17 | Nc1cc(-c2ccc(Cl)cc2)nn1-c1nnc(/C=C/c2ccco2)c(=O)[nH]1 | 39 µM |  | 30.6 µM | > 48 | 36.1 µM | 34.7 µM | 41.4 µM | 22.6 µM | 37.8 µM | 3.37 µM | 1.78 µM | 6.9 µM | 3.41 µM | 2.98 µM | 5.6 µM | 9.91 µM | 12.9 µM | 2.41 µM | 4.89 µM | 
18 | O=[N+]([O-])c1ccc(-c2cc3c(Nc4ccc(Cl)c(C(F)(F)F)c4)ncnc3s2)cc1 | > 100 µM |  | > 100 µM | > 100 | > 100 µM | 6.19 µM | 9.02 µM | > 26.7 µM | > 100 µM | 1.34 µM | 0.706 µM | 3.42 µM | 2.86 µM | 0.872 µM | 3.56 µM | 1.79 µM | 1.87 µM | 1.13 µM | 1.62 µM | 
19 | N#CC(C#N)=c1c2nsnc2c(=C(C#N)C#N)c2nsnc12 | 4.26 µM | 4.39 | 3.54 µM |  | 31.3 µM | 2.61 µM | 3.01 µM | 3.87 µM |  |  |  |  |  |  |  |  |  |  |  | 
20 | O=C(c1cccs1)C1NO[N+]([O-])=C1c1cccs1 (stereo unspecified) | 5.98 µM |  | 7.87 µM | > 100 | 6.27 µM | 3.42 µM | 3.89 µM | 1.47 µM | 3.72 µM | 2.35 µM | 1.95 µM | 6.3 µM | 2.71 µM | 3.02 µM | 2.45 µM | 1.68 µM | 1.54 µM | 0.27 µM | 1.75 µM | 
21 | CCOc1ccc(Nc2c3ccccc3nc3ccccc23)cc1 | 19.1 µM and 13.9 µM |  | 1.51 µM and 1.69 µM |  | 4.27 µM and 12.3 µM | 2.25 µM and 2.71 µM | 3.39 µM and 1.52 µM | 3.99 µM and 3.74 µM | 14.9 µM and 13.4 µM | 0.709 µM and 0.526 µM | 0.307 µM and 0.332 µM | 6.81 µM and 3.02 µM | 0.359 µM and 0.312 µM | 0.316 µM and 0.0616 µM | 0.797 µM and 0.654 µM | 0.397 µM and 0.402 µM | 0.309 µM and 0.25 µM | 0.677 µM and 0.356 µM | 0.758 µM and 0.32 µM | 
22 | CC(C)[O-].CC(C)[O-].CN(CCN(C)Cc1cc(F)cc(F)c1[O-])Cc1cc(F)cc(F)c1[O-].[Ti+4] | 3.22 µM |  | 2.3 µM | 5.49 | 7.26 µM | 1.31 µM | 2.52 µM | 5.46 µM | 2.47 µM | 1.04 µM | 1.13 µM | 2.76 µM | 0.638 µM | 0.835 µM | 1.42 µM | 0.357 µM | 0.517 µM | 0.977 µM | 0.688 µM | 
23 | O=C1c2ccccc2-c2c1c1c(NCCCO)nc3ccccc3c1n2Cc1ccccc1 | 51.9 µM |  | 58.2 µM | 28.8 | 41.1 µM | 86.6 µM | 39.8 µM | 73.7 µM | > 100 µM | 22.7 µM | 21.6 µM | 48.6 µM | 26.8 µM | 15.5 µM | 23 µM | 32.5 µM | 20.7 µM | 24.6 µM | 48.6 µM | 
24 | CC(C)Oc1ccc(C(=O)Cn2ccnc2)cc1-n1c(CN2CCN(C(=O)COc3ccc(Cl)cc3)CC2)nc2ccccc2c1=O | 32.9 µM |  | 32.6 µM | 81.3 | > 74.4 µM | 22.2 µM | 32.2 µM | 2.98 µM | 16.5 µM | 12.9 µM | 14.1 µM | 28.6 µM | 14 µM | 5.77 µM | 12.8 µM | 7.48 µM | 5.49 µM | 1.56 µM | 1 µM | 
25 | Cc1ccc(-n2nc(C(C)(C)C)cc2NC(=O)NCc2cc(F)ccc2Oc2ccc3c(cnn3CCO)c2)cc1 | > 100 µM |  | > 28.5 µM | > 10 | > 91.9 µM | > 10 µM and 23.7 µM | > 100 µM | > 55.5 µM | > 100 µM | > 10 µM and 4.61 µM | 1.02 µM and 1.48 µM | 9.34 µM and 6.97 µM | 0.649 µM and 1.31 µM | 0.00802 µM and 0.0185 µM | > 10 µM and 10.8 µM | 7.04 µM and 4.64 µM | > 10 µM and 14.8 µM | 1.33 µM and 2.76 µM | 2.59 µM and 4.69 µM | 
